Each molecule was assayed on antibody response to sheep blood cells (hemaglutination titer) (assay: Immune regulating test: suppression of hemaglutination titer by 4-fold factor in mice (i.p. drug, i.p. sheep blood cells), Tables 1-15). Conditions: Mus musculus, ip, 192 h, × 3, intraperitoneal, minimum dose to suppress the hemaglutination titer by a 4-fold factor, 8 days after antigen, read-out: Immuno-Suppressant ED4-Fold.
Type: in vivo, Swiss mice
Procedure: The ability of compounds according to the above formulas to alter immune mechanisms in a host animal was measured by their activity according to the following test. Groups of five 20-gram Swiss mice were injected intraperitoneally with standardized suspensions of an antigen--in this instance sheep blook cells. […] Eight days after injection of the antigen, the mice were bled and the sera from each group pooled. Antibody determinations were made on the serum pools by a hemaglutination pattern procedure and comparisons made between treated and control animals. In Tables 1-18 which follow, the activity of the compounds listed therein is given in terms of the minimum dose of drug necessary to suppress the hemaglutination titer by a 4-fold factor in the treated mice as compared with control titers.
Work on `COc1ccc2nc(NC(=O)Nc3ccc(C)cc3)sc2c1` [Table 11: p-tolyl, 6-CH3 O, S] yielded a minimal effective dose of less than 100 mg/kg. `O=C(Nc1ccc(Br)cc1)Nc1nc2ccccc2s1` [Table 11: p-bromophenyl, H, S] showed a minimal effective dose of 100 mg/kg. In the case of `Cc1cc2nc(NC(=O)Nc3ccc(Cl)cc3)[nH]c2cc1C` [Table 5: p-chlorophenyl, CH3, CH3], the minimal effective dose is reported as 12.5 mg/kg. Molecule `Cc1cc2nc(NC(=O)Nc3ccc(Cl)c(Cl)c3)[nH]c2cc1C` [Table 5: 3,4-dichlorophenyl, CH3, CH3] has a minimal effective dose of 100 mg/kg. Molecule `O=C(Nc1nc2c(ccc3ccccc32)s1)Nc1ccccc1Cl` [Table 14: o-chlorophenyl] has a minimal effective dose of 6.2 mg/kg. `O=C(Nc1nc2cc3ccccc3cc2[nH]1)Nc1cccc2ccccc12` [Table 9: α-naphthyl] was tested, and the minimal effective dose was 50 mg/kg. `O=C(Nc1nc2c([N+](=O)[O-])cccc2[nH]1)Nc1ccccc1F` [Table 6: 4(7), o-fluorophenyl] was tested, and the minimal effective dose was 3.1 mg/kg. Work on `Cc1cc2nc(NC(=O)Nc3ccc(Cl)c(Cl)c3)sc2cc1C` yielded a minimal effective dose of 50 mg/kg. Work on `COc1ccc(NC(=O)Nc2nc3ccccc3s2)cc1` [Table 11: p-anisyl, H, S] yielded a minimal effective dose of 50 mg/kg. Molecule `O=C(Nc1cccc(Cl)c1)Nc1nc2cc(Cl)ccc2o1` [Table 11: m-chlorophenyl, 5-Cl, O] has a minimal effective dose of 400 mg/kg. Molecule `O=C(Nc1ccc(Cl)cc1)Nc1nc2c(ccc3ccccc32)s1` [Table 14: p-chlorophenyl] has a minimal effective dose of less than 100 mg/kg. For `Cc1ccccc1NC(=O)Nc1nc2c(ccc3ccccc32)s1` [Table 14: o-tolyl], the minimal effective dose was less than 1.6 mg/kg. `O=C(Nc1nc2cc(Cl)ccc2[nH]1)Nc1ccccc1Cl` [Table 2: o-chlorophenyl] showed a minimal effective dose of 100 mg/kg. `Cc1ccc2[nH]c(NC(=O)Nc3cccc4ccccc34)nc2c1` [Table 4: α-naphthyl, CH3] showed a minimal effective dose of less than 0.4 mg/kg. In the case of `Cc1cc2nc(NC(=O)Nc3ccc(Br)cc3)[nH]c2cc1C` [Table 5: p-bromophenyl, CH3, CH3], the minimal effective dose is reported as 12.5 mg/kg. `Cc1cc2nc(NC(=O)Nc3cc(Cl)ccc3Cl)sc2cc1C` was tested, and the minimal effective dose was less than 12.5 mg/kg. With `O=C(Nc1ccc(Cl)c(Cl)c1)Nc1nc2ccccc2s1` [Table 11: 3,4-dichlorophenyl, H, S] the minimal effective dose was 12.5 mg/kg. `Cc1ccc(NC(=O)Nc2nc3ccc4ccccc4c3s2)cc1` [Table 15: p-tolyl] showed a minimal effective dose greater than 25 mg/kg. `O=C(Nc1ccc(Cl)cc1)Nc1nc2ccccc2[nH]1` [Table 1: p-chlorophenyl, H] showed a minimal effective dose of 12.5 mg/kg. In the case of `O=C(Nc1nc2c(ccc3ccccc32)s1)Nc1ccccc1F` [Table 14: o-fluorophenyl], the minimal effective dose is reported as 3.1 mg/kg. Work on `O=C(Nc1ccccc1)Nc1nc2cc3ccccc3cc2[nH]1` [Table 9: phenyl] yielded a minimal effective dose of 25 mg/kg. In the case of `O=C(Nc1ccc(Br)cc1)Nc1nc2ccc3ccccc3c2s1` [Table 15: p-bromophenyl], the minimal effective dose is reported as 50 mg/kg. Work on `Cc1cccc(NC(=O)Nc2nc3cc(C)c(C)cc3[nH]2)c1` [Table 5: m-tolyl, CH3, CH3] yielded a minimal effective dose of 12.5 mg/kg. Molecule `Cc1cccc(NC(=O)Nc2nc3c(ccc4ccccc43)s2)c1` [Table 14: m-tolyl] has a minimal effective dose of 3.1 mg/kg. In the case of `Cc1cccc(NC(=O)Nc2nc3cc(Cl)ccc3[nH]2)c1` [Table 2: m-tolyl], the minimal effective dose is reported as 25 mg/kg. For `O=C(Nc1nc2cc(C(F)(F)F)ccc2[nH]1)Nc1cccc2ccccc12` [Table 4: α-naphthyl, CF3], the minimal effective dose was less than 50 mg/kg. Molecule `CCOC(=O)c1ccc2[nH]c(NC(=O)Nc3ccccc3)nc2c1` [Table 3: phenyl] has a minimal effective dose of less than 25 mg/kg. Work on `Cc1cc2nc(NC(=O)Nc3ccc(Br)cc3)sc2cc1C` [Table 11: p-bromophenyl, 5,6-dimethyl, S] yielded a minimal effective dose of 100 mg/kg. `COc1ccc2nc(NC(=O)Nc3ccccc3C)sc2c1` [Table 11: o-tolyl, 6-CH3 O, S] gave a minimal effective dose of less than 50 mg/kg. Work on `O=C(Nc1cccc2ccccc12)Nc1nc2ccccc2n1-c1ccccc1` [Table 8: α-naphthyl, phenyl] yielded a minimal effective dose of 100 mg/kg. Work on `O=C(Nc1nc2cc(Cl)ccc2o1)Nc1cccc2ccccc12` [Table 11: α-naphthyl, 5-Cl, O] yielded a minimal effective dose of 200 mg/kg. Molecule `O=C(Nc1nc2ccccc2s1)Nc1ccccc1Cl` [Table 11: o-chlorophenyl, H, S] has a minimal effective dose of less than 50 mg/kg. Molecule `O=C(Nc1ccc(Cl)c(Cl)c1)Nc1nc2ccccc2[nH]1` [Table 1: 3,4-dichlorophenyl, H] has a minimal effective dose of 0.8 mg/kg. In the case of `Cn1c(NC(=O)Nc2cccc3ccccc23)nc2ccccc21` [Table 8: α-naphthyl, methyl], the minimal effective dose is reported as greater than 50 mg/kg. Work on `COc1ccc2nc(NC(=O)Nc3ccc(Cl)cc3)sc2c1` [Table 11: p-chlorophenyl, 6-CH3 O, S] yielded a minimal effective dose of less than 50 mg/kg. In the case of `CN(C(=O)Nc1ccc(Cl)cc1)c1nc2ccccc2s1` [Table 12: p-chlorophenyl], the minimal effective dose is reported as less than 50 mg/kg. In the case of `Cc1ccc(NC(=O)Nc2nc3cc(C)c(C)cc3s2)cc1` [Table 11: p-tolyl, 5,6-dimethyl, S], the minimal effective dose is reported as 100 mg/kg. Work on `CN(C(=O)Nc1cccc(Cl)c1)c1nc2ccccc2[nH]1` [Table 7: m-chlorophenyl, H] yielded a minimal effective dose of 25 mg/kg. `Cc1cccc(NC(=O)Nc2nc3cc(C)c(C)cc3s2)c1` [Table 11: m-tolyl, 5,6-dimethyl, S] showed a minimal effective dose of 25 mg/kg. With `COc1ccc2nc(NC(=O)Nc3cccc(Cl)c3)sc2c1` [Table 11: m-chlorophenyl, 6-CH3 O, S] the minimal effective dose was 12.5 mg/kg. For `Cc1cc2nc(NC(=O)Nc3cccc(Cl)c3)[nH]c2cc1C` [Table 5: m-chlorophenyl, CH3, CH3], the minimal effective dose was 800 mg/kg. For `CCOC(=O)c1ccc2[nH]c(NC(=O)Nc3cccc(C(F)(F)F)c3)nc2c1` [Table 3: m-trifluoromethylphenyl], the minimal effective dose was 100 mg/kg. For `O=C(Nc1ccc(Cl)cc1)Nc1nc2ccccc2s1` [Table 11: p-chlorophenyl, H, S], the minimal effective dose was less than 6.2 mg/kg. `COc1ccc2nc(NC(=O)Nc3ccccc3Cl)sc2c1` [Table 11: o-chlorophenyl, 6-CH3 O, S] showed a minimal effective dose of less than 50 mg/kg. For `O=C(Nc1nc2c(ccc3ccccc32)s1)Nc1cccc2ccccc12` [Table 14: α-naphthyl], the minimal effective dose was 3.1 mg/kg. With `Cc1cc2nc(NC(=O)Nc3ccccc3C)sc2cc1C` [Table 11: o-tolyl, 5,6-dimethyl, S] the minimal effective dose was less than 25 mg/kg. `CCOC(=O)c1ccc2[nH]c(NC(=O)Nc3ccc(C)cc3)nc2c1` [Table 3: p-tolyl] gave a minimal effective dose of 100 mg/kg. `Cc1ccc(NC(=O)Nc2nc3cc(C)c(C)cc3[nH]2)cc1` [Table 5: p-tolyl, CH3, CH3] gave a minimal effective dose of 3 mg/kg. For `O=C(Nc1cccc(Cl)c1)Nc1nc2cc(C(F)(F)F)ccc2[nH]1` [Table 4: am-chlorophenyl, CF3], the minimal effective dose was 50 to 200 mg/kg. Work on `Cc1ccccc1NC(=O)Nc1nc2cc(Cl)ccc2[nH]1` [Table 2: o-tolyl] yielded a minimal effective dose of 100 mg/kg. `Cn1c(NC(=O)Nc2cccc(Cl)c2)nc2ccccc21` [Table 8: m-chlorophenyl, methyl] gave a minimal effective dose of 6.2 mg/kg. In the case of `Cc1ccc2[nH]c(NC(=O)Nc3ccccc3)nc2c1` [Table 4: phenyl, CH3], the minimal effective dose is reported as 100 mg/kg. Work on `O=C(Nc1cccc(Cl)c1)Nc1nc2c(ccc3ccccc32)[nH]1` [Table 10: m-chlorophenyl] yielded a minimal effective dose of 0.05 mg/kg. Work on `CCOC(=O)c1ccc2[nH]c(NC(=O)Nc3ccc(Cl)cc3)nc2c1` [Table 3: p-chlorophenyl] yielded a minimal effective dose of 50 mg/kg. `CCOC(=O)c1ccc2[nH]c(NC(=O)Nc3ccccc3F)nc2c1` [Table 3: o-fluorophenyl] gave a minimal effective dose of less than 6.2 mg/kg. For `O=C(Nc1nc2cc(Cl)ccc2[nH]1)Nc1cccc2ccccc12` [Table 2: α-naphthyl], the minimal effective dose was 6.2 mg/kg.
